Laboratory results: US12319652B2, “Salts and solid forms of (R)-1-(5-methoxy-1H-indol-1-yl)-N,N-dimethylpropan-2-amine” (priority 2021, dated 2025)

How the values were obtained:
[1] = Dynamic vapor sorption (DVS); assay type: physicochemical; conditions: for DVS isotherm type / hygroscopicity: 0 to 90 to 0% RH; for DVS desorption behaviour (hysteresis): during desorption
Description: There are two main methods to use, one is by time where the equilibration is given by a fixed time, i.e., 1 hour per step and is appropriate for an unknown phase. The second, is by mass per time unit (dm/dt) of 0.002%/min; that is when the difference in weight is less than 0.002%, the instrument moves onto the next step. For unknown hygroscopicity, the method by time is indicated because it gives an idea of water affinity without wasting much time. Ideally the analyses are repeated using the mass equilibration method to confirm. By experience for hygroscopic samples, the analysis can continue for days. For non-hygroscopic samples the difference between the two methods may not be significant.
Consequently, amorphous batch 1 was analyzed by the fixed time method and once compound 1 fumarate crystalline polymorphic Form A was generated the analyses was repeated as mass per unit time equilibrated @dm/dt ([…]) and is given below (refer to FIG. 12).
(§1) The moisture sorption properties of the feed API were analysed by DVS Intrinsic instrument (Surface Measurement System). Approximately 20 to 50 mg of API was weighed onto an aluminium pan and loaded into the instrument equilibrated at 25° C. The sample was equilibrated under a dry atmosphere (0% relative humidity) for 60 minutes, before increasing the humidity from 0% to 30% at 5%4 step increment and from 30% to 90% at 10% step increment. A desorption cycle was also applied from 90% to 30% (10% step decrement) and from 30% to 0% (5% step decrement). A rate of change in mass per time unit (dm/dt) of 0.002%/min was set as the equilibrium parameter. Kinetic and isotherm graphs were calculated.
Specimens were equilibrated at 0% RH for 60 min, prior to DVS analyses (stepped increment % RH up to 90% RH and stepped decrement % RH down to 0% RH.
as §1, with “5%” for “5%4”

[2] = assay type: physicochemical; conditions: 40° C./75% RH, 10-day time point
Description: Equilibrium Humidity Evaluation (40° C./75% RH for 10 Days)
100 mg portions of compound 1 salts (for inputs see table below) were placed in the relevant open vials. The powders were finely divided and distributed evenly over the base of the vial, such that equal material coverage across the panel was observed. These samples were then maintained 40°C. under 75% RH. The samples were sub-sampled at intervals of 5 and 10 days and analysed by ^1H NMR, HPLC, XRPD, DSC, TGA and PLM, for evidence of phase change or chemical degradation (FIG. 269-297).

[3] = Solubility determinations in SIF buffers (FaSSIF, FeSSIF, FaSSGF); assay type: physicochemical
Description: At this stage ca. 1 g of each front-runner salt form was prepared. Salt forms that offered significant solubility and stability advantages over the non-ionized API were prioritized. […] Scale Up
The solubility of the salts below was determined in FaSSIF, FeSSIF and FaSSGF by reference to the calibration curve of amorphous compound 1.
Separate portions of compound 1 were weighed out into aluminum boats and were charged to the relevant volumetric flasks. Solutions were made to volume with 1 to 1 (v/v) acetonitrile/purified water to give calibrants of known API concentrations and analyzed by HPLC, suitable to determine the concentration of compound 1 free base in the SIF buffer solubility study.
Each sample (150 mg) was suspended in the relevant SIF buffer (5.0 ml), to give a concentration of 30 mg/ml and maintain at 37° C. for 24 h. The pH was adjusted using 1 M HCl or 1 M NaOH, to ensure that the suspension remains in range.
Sample (1 ml) of the well-stirred representative suspensions was obtained at 1 h, 3 h, 6 h and 24 h and the pH was recorded. The pH of the bulk suspension was re-adjusted when necessary. The obtained sample from each vial was centrifuged, and the supernatant was analysed by HPLC (note, the analyte was diluted, when outside of the calibration range); XRPD analysis was performed on the wet sample pellet for evidence of form change, as well as on the oven-dried pellet (undervacuum at 40° C.).

With `COc1ccc2c(ccn2C[C@@H](C)N(C)C)c1.O=C(O)c1ccccc1` [compound 1 benzoate] the “DVS isotherm type / hygroscopicity” value [1] was “hygroscopic”, the “DVS 0 to 90 to 0% RH (dm/dt <0.002%)” value ([1]; 5.0% RH, desorption) was -0.39% and the “DVS 0 to 90 to 0% RH (dm/dt <0.002%)” value ([1]; 5.0% RH, sorption) was 0.02%. The “DVS 0 to 90 to 0% RH (dm/dt <0.002%)” value ([1]; 10.0% RH, desorption) was −0.34%, the “DVS 0 to 90 to 0% RH (dm/dt <0.002%)” value ([1]; 10.0% RH, sorption) was 0.04% and the “DVS 0 to 90 to 0% RH (dm/dt <0.002%)” value ([1]; 15.0% RH, desorption) was -0.29%. For the same compound, the “DVS 0 to 90 to 0% RH (dm/dt <0.002%)” value ([1]; 15.0% RH, sorption) was 0.06%, the “DVS 0 to 90 to 0% RH (dm/dt <0.002%)” value ([1]; 20.0% RH, desorption) was −0.25% and the “DVS 0 to 90 to 0% RH (dm/dt <0.002%)” value ([1]; 20.0% RH, sorption) was 0.10%. The “DVS 0 to 90 to 0% RH (dm/dt <0.002%)” value ([1]; 25.0% RH, desorption) was −0.19%, the “DVS 0 to 90 to 0% RH (dm/dt <0.002%)” value ([1]; 25.0% RH, sorption) was 0.10% and the “DVS 0 to 90 to 0% RH (dm/dt <0.002%)” value ([1]; 30.0% RH, desorption) was -0.16%. For the same compound, the “DVS 0 to 90 to 0% RH (dm/dt <0.002%)” value ([1]; 30.0% RH, sorption) was 0.13%, the “DVS 0 to 90 to 0% RH (dm/dt <0.002%)” value ([1]; 40.0% RH, desorption) was −0.19% and the “DVS 0 to 90 to 0% RH (dm/dt <0.002%)” value ([1]; 40.0% RH, sorption) was 0.19%. The “DVS 0 to 90 to 0% RH (dm/dt <0.002%)” value ([1]; 50.0% RH, desorption) was 0.20%, the “DVS 0 to 90 to 0% RH (dm/dt <0.002%)” value ([1]; 50.0% RH, sorption) was 0.30% and the “DVS 0 to 90 to 0% RH (dm/dt <0.002%)” value ([1]; 60.0% RH, desorption) was 0.41%. The “DVS 0 to 90 to 0% RH (dm/dt <0.002%)” value ([1]; 60.0% RH, sorption) was 0.42%, the “DVS weight gain at 70% RH” value ([1]; 70% RH (printed 70° RH in Example 8)) was “ca. 0.6 % w/w” and the “DVS 0 to 90 to 0% RH (dm/dt <0.002%)” value ([1]; 70.0% RH, desorption) was 0.61%. The “DVS 0 to 90 to 0% RH (dm/dt <0.002%)” value ([1]; 70.0% RH, sorption) was 0.58%, the “DVS 0 to 90 to 0% RH (dm/dt <0.002%)” value ([1]; 80.0% RH, desorption) was 0.92% and the “DVS 0 to 90 to 0% RH (dm/dt <0.002%)” value ([1]; 80.0% RH, sorption) was 0.89%. For the same compound, the “DVS 0 to 90 to 0% RH (dm/dt <0.002%)” value ([1]; 90.0% RH, desorption) was 1.52%, the “DVS 0 to 90 to 0% RH (dm/dt <0.002%)” value ([1]; 90.0% RH, sorption) was 1.52% and the “DVS desorption behaviour (hysteresis)” value [1] was “desorption profile was unusual and ended beneath unity”. The “Change of purity profile / CP” value [2] was “little changed”, the “Disproportionation in FaSSGF” value ([3]; 1H NMR of isolated residue, non-ionised benzoic acid present) was “disproportionated” and the “Observation upon pH adjustment from 4.17 to 1.63” value ([3]; SIF buffer solubility study) was “solid was observed”.
With `COc1ccc2c(ccn2C[C@@H](C)N(C)C)c1.O=C(O)/C=C\C(=O)O` [compound 1 maleate] the DVS isotherm uptake [1] was “ca. 3.5 % w/w”, the “DVS 0 to 90 to 0% RH (dm/dt <0.002%)” value ([1]; 0.0% RH, desorption) was −0.07% and the “DVS 0 to 90 to 0% RH (dm/dt <0.002%)” value ([1]; 0.0% RH, sorption) was “DVS 0 to 90 to 0% RH (dm/dt <0.002%): 0.0 (0.00%), 5.0”. For the same compound, the “DVS isotherm type / hygroscopicity” value [1] was “hygroscopic”, the “DVS 0 to 90 to 0% RH (dm/dt <0.002%)” value ([1]; 5.0% RH, desorption) was −0.03% and the “DVS 0 to 90 to 0% RH (dm/dt <0.002%)” value ([1]; 5.0% RH, sorption) was 0.02%. For the same compound, the “DVS 0 to 90 to 0% RH (dm/dt <0.002%)” value ([1]; 10.0% RH, desorption) was 0.03%, the “DVS 0 to 90 to 0% RH (dm/dt <0.002%)” value ([1]; 10.0% RH, sorption) was 0.05% and the “DVS 0 to 90 to 0% RH (dm/dt <0.002%)” value ([1]; 15.0% RH, desorption) was 0.09%. For the same compound, the “DVS 0 to 90 to 0% RH (dm/dt <0.002%)” value ([1]; 15.0% RH, sorption) was 0.08%, the “DVS 0 to 90 to 0% RH (dm/dt <0.002%)” value ([1]; 20.0% RH, desorption) was 0.15% and the “DVS 0 to 90 to 0% RH (dm/dt <0.002%)” value ([1]; 20.0% RH, sorption) was 0.11%. The “DVS 0 to 90 to 0% RH (dm/dt <0.002%)” value ([1]; 25.0% RH, desorption) was 0.22%, the “DVS 0 to 90 to 0% RH (dm/dt <0.002%)” value ([1]; 25.0% RH, sorption) was 0.14% and the “DVS 0 to 90 to 0% RH (dm/dt <0.002%)” value ([1]; 30.0% RH, desorption) was 0.30%. For the same compound, the “DVS 0 to 90 to 0% RH (dm/dt <0.002%)” value ([1]; 30.0% RH, sorption) was 0.18%, the “DVS 0 to 90 to 0% RH (dm/dt <0.002%)” value ([1]; 40.0% RH, desorption) was 0.48% and the “DVS 0 to 90 to 0% RH (dm/dt <0.002%)” value ([1]; 40.0% RH, sorption) was 0.26%. The “DVS 0 to 90 to 0% RH (dm/dt <0.002%)” value ([1]; 50.0% RH, desorption) was 0.70%, the “DVS 0 to 90 to 0% RH (dm/dt <0.002%)” value ([1]; 50.0% RH, sorption) was 0.42% and the “DVS 0 to 90 to 0% RH (dm/dt <0.002%)” value ([1]; 60.0% RH, desorption) was 1.00%. The “DVS 0 to 90 to 0% RH (dm/dt <0.002%)” value ([1]; 60.0% RH, sorption) was 0.86%, the “DVS 0 to 90 to 0% RH (dm/dt <0.002%)” value ([1]; 70.0% RH, desorption) was 1.40% and the “DVS 0 to 90 to 0% RH (dm/dt <0.002%)” value ([1]; 70.0% RH, sorption) was 1.38%. For the same compound, the “DVS 0 to 90 to 0% RH (dm/dt <0.002%)” value ([1]; 80.0% RH, desorption) was 2.03%, the “DVS 0 to 90 to 0% RH (dm/dt <0.002%)” value ([1]; 80.0% RH, sorption) was 2.00% and the “DVS 0 to 90 to 0% RH (dm/dt <0.002%)” value ([1]; 90.0% RH, desorption) was 3.44%. For the same compound, the “DVS 0 to 90 to 0% RH (dm/dt <0.002%)” value ([1]; 90.0% RH, sorption) was 3.44%, the “DVS desorption behaviour (hysteresis)” value [1] was “small hysteresis” and the “Change of purity profile / CP” value [2] was “reduction in CP”. For the same compound, the “Solubility in SIF buffers” value ([3]; FaSSIF, FeSSIF and FaSSGF, 37° C., 24 h, concentration tested 30 mg/ml) was “freely soluble”.
